# Experimental data as given in PubChem BioAssay (NCI).
#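 96-well plates; 48 h exposure; 5 concentrations. Endpoints by linear interpolation between flanking doses. Not reached: highest tested concentration assigned. GI50 is the concentration that inhibits growth by half. TGI marks complete inhibition of growth.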
# What was measured:
# Experiment in all cases: NCI anticancer screen, dose series, 48 h
# [1] = test system: OVCAR-8 ovarian
# [2] = test system: CCRF-CEM leukemia
# [3] = test system: SF-268 CNS
# [4] = test system: SNB-19 CNS
# [5] = test system: NCI-H226 lung
# [6] = test system: SW-620 colon
# [7] = test system: MOLT-4 leukemia
# [8] = test system: NCI-H460 lung
# [9] = test system: 786-0 renal
# [10] = test system: MALME-3M melanoma
# [11] = test system: TK-10 renal
# [12] = test system: OVCAR-5 ovarian
# [13] = test system: EKVX NSCLC
# [14] = test system: UO-31 renal
# [15] = test system: T-47D breast
# [16] = test system: NCI-H522 lung
# [17] = test system: SF-295 CNS
# [18] = test system: SK-MEL-28 melanoma
# [19] = test system: OVCAR-4 ovarian
# [20] = test system: ACHN renal
# [21] = test system: HT29 colon
# [22] = test system: SNB-75 CNS
# [23] = test system: HS 578T breast
# [24] = test system: A498 renal
# [25] = test system: BT-549 breast
# [26] = test system: K-562 leukemia
# [27] = test system: LOX IMVI melanoma
# [28] = test system: UACC-62 melanoma
# [29] = test system: M14 melanoma
# [30] = test system: RXF 393 renal
# [31] = test system: CAKI-1 renal
# [32] = test system: SK-MEL-2 melanoma
# [33] = test system: MDA-MB-231 breast
# [34] = test system: NCI/ADR-RES ovarian
# [35] = test system: A549 NSCLC
# [36] = test system: UACC-257 melanoma
# [37] = test system: HCC-2998 colon
# [38] = test system: HL-60(TB) leukemia
# [39] = test system: IGROV1 ovarian
# [40] = test system: U251 CNS
# [41] = test system: PC-3 prostate
# [42] = test system: SN12C renal
# [43] = test system: HCT-116 colon
# [44] = test system: SK-MEL-5 melanoma
# [45] = test system: HOP-92 NSCLC
# [46] = test system: SR leukemia
# [47] = test system: DU-145 prostate
# [48] = test system: RPMI-8226 leukemia
# [49] = test system: SK-OV-3 ovarian
# [50] = test system: HCT-15 colon
# [51] = test system: OVCAR-3 ovarian
# [52] = test system: HOP-62 NSCLC
# [53] = test system: NCI-H23 lung
# [54] = test system: SF-539 CNS
# [55] = test system: COLO 205 colon
# [56] = test system: MDA-MB-468 breast
# [57] = test system: MCF7 breast
# [58] = test system: KM12 colon
# [59] = test system: MDA-MB-435
smiles,measurement,setting,value
C=CC(=O)Nc1ccc(C(=O)/C=C/c2ccc(N(C)C)cc2)c(O)c1,GI50,[1],1680 nM
same,TGI,[1],4.28 µM
same,GI50,[2],2560 nM
same,TGI,[2],> 100 µM
same,GI50,[3],4 µM
same,TGI,[3],22.9 µM
same,GI50,[4],3.72 µM
same,TGI,[4],16.1 µM
same,GI50,[5],2460 nM
same,TGI,[5],11.3 µM
same,GI50,[6],1670 nM
same,TGI,[6],3.89 µM
same,GI50,[7],2800 nM
same,TGI,[7],> 100 µM
same,GI50,[8],2750 nM
same,TGI,[8],10.9 µM
same,GI50,[9],2180 nM
same,TGI,[9],7.94 µM
same,GI50,[10],2190 nM
same,TGI,[10],10.6 µM
same,GI50,[11],3.16 µM
same,TGI,[11],11.8 µM
same,GI50,[12],2550 nM
same,TGI,[12],10.7 µM
same,GI50,[13],5.76 µM
same,TGI,[13],25.8 µM
same,GI50,[14],1310 nM
same,TGI,[14],14.3 µM
same,GI50,[15],2330 nM
same,TGI,[15],12.6 µM
same,GI50,[16],1500 nM
same,TGI,[16],3.11 µM
same,GI50,[17],5.69 µM
same,TGI,[17],37.1 µM
same,GI50,[18],2020 nM
same,TGI,[18],6.44 µM
same,GI50,[19],4.08 µM
same,TGI,[19],43.6 µM
same,GI50,[20],1740 nM
same,TGI,[20],3.79 µM
same,GI50,[21],2370 nM
same,TGI,[21],7.08 µM
same,GI50,[22],3.27 µM
same,TGI,[22],14.8 µM
same,GI50,[23],3.26 µM
same,TGI,[23],> 100 µM
same,GI50,[24],10.5 µM
same,TGI,[24],36.8 µM
same,GI50,[25],1390 nM
same,TGI,[25],5.17 µM
same,GI50,[26],3.07 µM
same,TGI,[26],> 100 µM
same,GI50,[27],1460 nM
same,TGI,[27],3.28 µM
same,GI50,[28],1760 nM
same,TGI,[28],6.54 µM
same,GI50,[29],1970 nM
same,TGI,[29],6.62 µM
same,GI50,[30],1430 nM
same,TGI,[30],3.5 µM
same,GI50,[31],2850 nM
same,TGI,[31],10.3 µM
same,GI50,[32],2940 nM
same,TGI,[32],11.5 µM
same,GI50,[33],2410 nM
same,TGI,[33],7.49 µM
same,GI50,[34],2200 nM
same,TGI,[34],6.83 µM
same,GI50,[35],2570 nM
same,TGI,[35],16.1 µM
same,GI50,[36],3.5 µM
same,TGI,[36],18.6 µM
same,GI50,[37],2410 nM
same,TGI,[37],8.77 µM
same,GI50,[38],2540 nM
same,TGI,[38],8.45 µM
same,GI50,[39],3.51 µM
same,TGI,[39],15.1 µM
same,GI50,[40],2730 nM
same,TGI,[40],11.9 µM
same,GI50,[41],4.57 µM
same,TGI,[41],60.6 µM
same,GI50,[42],2030 nM
same,TGI,[42],8.27 µM
same,GI50,[43],1490 nM
same,TGI,[43],2900 nM
same,GI50,[44],3.08 µM
same,TGI,[44],12.9 µM
same,GI50,[45],1780 nM
same,TGI,[45],17 µM
same,GI50,[46],1100 nM
same,TGI,[46],> 100 µM
same,GI50,[47],2930 nM
same,TGI,[47],12.6 µM
same,GI50,[48],2910 nM
same,TGI,[48],12 µM
same,GI50,[49],9.3 µM
same,TGI,[49],26.7 µM
same,GI50,[50],1580 nM
same,TGI,[50],3.75 µM
same,GI50,[51],2790 nM
same,TGI,[51],13.2 µM
same,GI50,[52],3.15 µM
same,TGI,[52],13.3 µM
same,GI50,[53],3.26 µM
same,TGI,[53],14.1 µM
same,GI50,[54],1710 nM
same,TGI,[54],3.78 µM
same,GI50,[55],3.49 µM
same,TGI,[55],11.9 µM
same,GI50,[56],1610 nM
same,TGI,[56],6.17 µM
same,GI50,[57],1880 nM
same,TGI,[57],17 µM
same,GI50,[58],3.19 µM
same,TGI,[58],12.5 µM
same,GI50,[59],2920 nM
same,TGI,[59],14 µM
